Columns and labels:
[1] = tested on: 356 CRISPRi constructs in E. coli ΔtolC-pore; assay: CRISPRi collection fitness screen with sub-inhibitory compound; format: cell-based; details: for Growth, mean colony biomass (n=4): +250 ng/ml Vancomycin
Excerpt: To that end, we screened the E. coli CRISPRi collection in the ΔtolC-pore genetic background with a sub-inhibitory concentration of MAC-0452936 and measured the fitness of all 356 CRISPRi mutants (Figure 4C and Data S4). […] To that end, we introduced either an arabinose inducible copy of lgt supplied on the pCHAP9231 plasmid[48] or the pBAD19s plasmid as a control into E. coli ΔtolC-pore and tested the potency of MAC-0452936 (Figure 4E). […] To test this hypothesis, we constructed E. coli ΔlgtΔtolC-pore with pCHAP9231[48] so that lgt expression was driven solely by arabinose from the plasmid.
For screens of the CRISPRi collection with MAC-0452936, the mobile CRISPRi collection was first conjugated into E. coli ΔtolC-pore as previously described.[30] The CRISPRi collection was then arrayed on solid agar at 1536 density using the Singer-ROTOR, such that each CRISPRi strain is arrayed in technical quadruplicate. […] The screens were conducted without CRISPRi induction, using just the 5–10% basal knockdown from the pFD152 CRISPRi plasmid. Following overnight growth, plates were imaged using high-resolution scanners (Epson Perfection v750), and colony biomass for each mutant was determined.

[2] = tested on: E. coli ΔtolC-pore harboring CRISPRi plasmids targeting lgt; assay: CRISPRi lgt knockdown MIC (low-copy enhancement); format: cell-based; details: two gRNAs targeting lgt, 100 ng/mL aTc
Excerpt: We next turned to genetic approaches to confirm the mechanism of action of MAC-0452936. […] To that end, we screened the E. coli CRISPRi collection in the ΔtolC-pore genetic background with a sub-inhibitory concentration of MAC-0452936 and measured the fitness of all 356 CRISPRi mutants (Figure 4C and Data S4). […] Depletion of Lgt by CRISPRi provided supporting evidence that MAC-0452936 targeted Lgt in E. coli; however, we sought to confirm this observation using a parallel genetic approach. We hypothesized that MAC-0452936 potency would also be affected by high-copy expression of lgt. To that end, we introduced either an arabinose inducible copy of lgt supplied on the pCHAP9231 plasmid[48] or the pBAD19s plasmid as a control into E. coli ΔtolC-pore and tested the potency of MAC-0452936 (Figure 4E). Induction of lgt expression with arabinose suppressed the activity of MAC-0452936 by about 8-fold. […] To test this hypothesis, we constructed E. coli ΔlgtΔtolC-pore with pCHAP9231[48] so that lgt expression was driven solely by arabinose from the plasmid. […] To test this observation with MAC-0452936, we introduced an lpp deletion into our screening strain E. coli ΔtolC-pore and assessed the activity of our Lgt inhibitor in this mutant background. […]

Question: How did the “Growth, mean colony biomass (n=4)” value ([1]; gRNA asnS) turn out when CN[C@H](CC(C)C)C(=O)N[C@H]1C(=O)N[C@@H](CC(N)=O)C(=O)N[C@H]2C(=O)N[C@H]3C(=O)N[C@H](C(=O)N[C@H](C(=O)O)c4cc(O)cc(O)c4-c4cc3ccc4O)[C@H](O)c3ccc(c(Cl)c3)Oc3cc2cc(c3O[C@@H]2O[C@H](CO)[C@@H](O)[C@H](O)[C@H]2O[C@H]2C[C@](C)(N)[C@H](O)[C@H](C)O2)Oc2ccc(cc2Cl)[C@H]1O [Vancomycin] was run?
Answer: 0.957

Question: What about the “Growth represented as mean colony biomass” value ([1]; gRNA cdsA, 1μg/ml MAC0452936, 6ng/ml LolCDE-in-1, 250 ng/ml Vancomycin, 7 ng/ml CHIR090, n=4) of the same compound?
Answer: 1.2659

Question: And the “Growth, mean colony biomass (n=4)” value ([1]; gRNA csrA)?
Answer: 0.9477

Question: And the “Growth, mean colony biomass (n=4)” value ([1]; gRNA dnaC)?
Answer: 1.003

Question: What about the “Growth, mean colony biomass (n=4)” value ([1]; gRNA dut) of the same compound?
Answer: 1.0326

Question: And the “Growth, mean colony biomass (n=4)” value ([1]; gRNA folA)?
Answer: 1.027

Question: And the “Growth, mean colony biomass (n=4)” value ([1]; gRNA folC)?
Answer: 1.033

Question: And the “Growth, mean colony biomass (n=4)” value ([1]; gRNA ftsA)?
Answer: 0.9398

Question: And the “Growth, mean colony biomass (n=4)” value ([1]; gRNA glmS)?
Answer: 1.002

Question: What about the “Growth, mean colony biomass (n=4)” value ([1]; gRNA hemD) of the same compound?
Answer: 1.042

Question: What about the “Growth, mean colony biomass (n=4)” value ([1]; gRNA lexA) of the same compound?
Answer: 1.232

Question: What about the “Growth, mean colony biomass (n=4)” value ([1]; gRNA mnmA) of the same compound?
Answer: 1.044

Question: What about the “Growth, mean colony biomass (n=4)” value ([1]; gRNA msbA) of the same compound?
Answer: 1.015

Question: What about the “Growth, mean colony biomass (n=4)” value ([1]; gRNA mukF) of the same compound?
Answer: 1.002

Question: And the “Growth, mean colony biomass (n=4)” value ([1]; gRNA nadK)?
Answer: 0.9893

Question: What about the “Growth, mean colony biomass (n=4)” value ([1]; gRNA prmC) of the same compound?
Answer: 1.009

Question: What about the “Growth, mean colony biomass (n=4)” value ([1]; gRNA pssA) of the same compound?
Answer: 0.9581

Question: What about the “Growth, mean colony biomass (n=4)” value ([1]; gRNA ptsI) of the same compound?
Answer: 1.038

Question: What about the “Growth, mean colony biomass (n=4)” value ([1]; gRNA ribD) of the same compound?
Answer: 1.045

Question: What about the “Growth, mean colony biomass (n=4)” value ([1]; gRNA rne) of the same compound?
Answer: 1.0315

Question: And the “Growth, mean colony biomass (n=4)” value ([1]; gRNA rplA)?
Answer: 0.9936

Question: And the “Growth, mean colony biomass (n=4)” value ([1]; gRNA rplX)?
Answer: 1.03

Question: What about the “Growth, mean colony biomass (n=4)” value ([1]; gRNA rpmC) of the same compound?
Answer: 1.003

Question: What about the “Growth, mean colony biomass (n=4)” value ([1]; gRNA rpoE) of the same compound?
Answer: 1.036

Question: And the “Growth, mean colony biomass (n=4)” value ([1]; gRNA rpsG)?
Answer: 1.014

Question: What about the “Growth, mean colony biomass (n=4)” value ([1]; gRNA rpsK) of the same compound?
Answer: 0.9986

Question: And the “Growth, mean colony biomass (n=4)” value ([1]; gRNA rpsR)?
Answer: 0.9771

Question: What about the “Growth, mean colony biomass (n=4)” value ([1]; gRNA rpsT) of the same compound?
Answer: 1.039

Question: What about the “Growth, mean colony biomass (n=4)” value ([1]; gRNA suhB) of the same compound?
Answer: 0.9724

Question: And the “Growth, mean colony biomass (n=4)” value ([1]; gRNA tsaE)?
Answer: 0.9903

Question: And the “Growth, mean colony biomass (n=4)” value ([1]; gRNA ygeN)?
Answer: 0.9481

Question: And the “Growth, mean colony biomass (n=4)” value ([1]; gRNA yqeL)?
Answer: 1.455

Question: What about the “Growth, mean colony biomass (n=4)” value ([1]; gRNA zipA) of the same compound?
Answer: 1.731

Question: And the “growth defect of the lgt CRISPRi mutant in the presence of compound” value ([1]; sub-inhibitory (¼ MIC) concentration, LB agar, basal knockdown)?
Answer: did not demonstrate a growth defect

Question: And the “sensitization upon depletion of Lgt with CRISPRi constructs” value [2]?
Answer: not to either of the negative control antibiotics
